# Test results taken from patent US20170176439A1, “MARKERS AND THERAPEUTIC INDICATORS FOR GLIOBLASTOMA MULTIFORME (GBM)” (Institute for Systems Biology, priority 2014, published 2017).
# Experiments:
# [1] = tested on: primary GBM cells from SN143 tumor tissues; experiment: Flow cytometry of GBMSig expression in primary GBM cells from SN143 tumor tissue with TGF-β or its inhibitor; assay type: cell-based
# Protocol: The expression of the selected GBMSig proteins responsive to TGF-β viz. SLC16A1, HMOX1, MRC2, SLC16A3, CD47, and CD97 was also tested in primary GBM cells from SN143 tumor tissues in the presence of TGF-β or its inhibitor by flow cytometry.
# [2] = tested on: C-terminal phosphorylation of SMAD2; experiment: C-terminal phosphorylation of SMAD2 in U87 cells; assay type: cell-based
# Protocol: (§1) To identify markers for subjects that may benefit from this treatment, astrocytoma cell line U87 was serum starved overnight and treated with 10 ng/ml TGF-β1 for 40 hrs. […] However, as serum contains many essential elements and growth factors, the effect of serum starvation on cells might not be specific to the inhibition of TGF-β signaling. Therefore, we employed a TGF-β-inhibitor (SB 431542) known to interfere with the C-terminal phosphorylation of SMAD2. […] Thus in subsequent SRM analysis, TGF-β-inhibitor was used instead of serum starving.
# [3] = tested on: healthy neural stem cells (NSCs); experiment: GBMSig cell-surface expression in healthy NSCs with TGF-β1 or inhibitor; assay type: cell-based
# Protocol: [The source words this procedure for another cell line and reports this cell line under the same test.] The expression of the selected GBMSig proteins responsive to TGF-β viz. SLC16A1, HMOX1, MRC2, SLC16A3, CD47, and CD97 was also tested in primary GBM cells from SN143 tumor tissues in the presence of TGF-β or its inhibitor by flow cytometry. […] EGFR, EGFRVIII, and PTEN altered in GBM can create further heterogeneities in TGF-β responsiveness as observed through the expression of various GBMSig proteins.
# U-87 cells = conditions: U-87, flow cytometry
# Protocol: In an alternate assay, six GBMSig proteins viz. SLC16A1, MRC2, CD47, SLC16A3, HMOX1, and CD97 were tested as downstream factors of TGF-β signaling by flow cytometry. TGF-β or TGF-β inhibitor treated intact U-87 cells were analyzed by flow cytometry and the ratio of the respective GBMSig expression in response to TGF-β1 over its inhibitor was obtained.
# U87 cell line = experiment: d-SRM assays of GBMSig protein expression in U87 cell line after TGF-β vs TGF-β-inhibitor treatment; assay type: cell-based
# Protocol: Novel TGF-β responsive elements were identified among GBMSig through experimental validation. […] U87 cells were treated with TGF-β1 or its inhibitor alone or sequentially with inhibitor followed by TGF-β1. Changes in expressions of GBMSig proteins following such treatments were measured by SRM assays.
# as §1
# [4] = tested on: isogenic cell lines of U87 (EGFR, EGFRVIII, PTEN); experiment: Cell-surface GBMSig expression in response to TGF-β in U87 isogenic cell lines; assay type: cell-based
# Protocol: Isogenic cell lines of U87 where key proliferative genes such as EGFR and EGFRVIII are overexpressed alone or in combination with PTEN were tested for molecular responsiveness of isogenic cell lines towards TGF-β treatment. In EGFR and EGFRVIII isogenic cell lines, there was elevated surface expression of SLC16A1 and HMOX1 in response to TGF-β treatment. PTEN expression, however, inhibited this effect, indicating possible involvement of a tumor suppressor PTEN in modulating the surface expression of these proteins in GBM. On the other hand, MRC2 and CD47 were up regulated in response to TGF-β treatment when PTEN was overexpressed.
# Commonly mutated GBM genes include EGFR, EGFRVIII, and PTEN. Four isogenic cell lines of U87 in which these genes are expressed alone or in combinations of EGFRVIII and PTEN or EGFR and PTEN via a stably integrated retroviral vector were used (Gini, B., et al., Clin Cancer Res. (2013) 19:5722-5732).
# There was an increase in the cell-surface expression of CD47, SLC16A3, MRC2, HMOX1 and SLC16A1 in response to TGF-β in all U87 isogenic cell lines similar to that of the parental cell line.
# [5] = primary GBM cells from SN143 tissue, flow cytometry
# [6] = U87 isogenic overexpressing EGFR
# [7] = U87 isogenic overexpressing EGFRVIII
compound,measurement,setting,value
NC(=O)c1ccc(-c2nc(-c3ccc4c(c3)OCO4)c(-c3ccccn3)[nH]2)cc1 [SB 431542],increase in surface expression of HMOX1 in response to TGF-β-inhibitor treatment relative to TGF-β treatment,[1]; SN143 tumor-derived GCSC populations,30%
same,C-terminal phosphorylation of SMAD2,[2]; cells in normal media (DMEM+10% FCS) supplemented with inhibitor,dampened or diminished
same,"expression of MRC2, CD47, SLC16A3 and CD97 after TGF-β-inhibitor treatment",[3]; NSCs,increased expression
same,"effect on SLC16A1, HMOX1 and CD97 expression",[3]; healthy NSCs,little or no effect
same,expression of CD47 in response to TGF-β-inhibitor treatment compared to TGF-β1 treatment,[3]; healthy NSCs,0.61 fold
same,expression of MRC2 in response to TGF-β-inhibitor treatment compared to TGF-β1 treatment,[3]; healthy NSCs,0.19 fold
"TGF-β1: TGF-β1, inducer of epithelial to mesenchymal transition, used at 10 ng/ml to treat cells","increase of ratio of cell-surface CD47, TGF-β over TGF-β inhibitor",U-87 cells,40%
same,"increase of ratio of cell-surface HMOX1, TGF-β over TGF-β inhibitor",U-87 cells,20%
same,"increase of ratio of cell-surface MRC2, TGF-β over TGF-β inhibitor",U-87 cells,25%
same,"increase of ratio of cell-surface SLC16A1, TGF-β over TGF-β inhibitor",U-87 cells,20%
same,"increase of ratio of cell-surface SLC16A3, TGF-β over TGF-β inhibitor",U-87 cells,30%
same,"increase of ratio of cell-surface CD97, TGF-β over TGF-β inhibitor",U-87 cells; essentially no change,1.1 fold
same,expression of HMOX1 when treated with TGF-β1 compared to its inhibitor,[1]; [5],0.77 fold
same,expression of MRC2 when treated with TGF-β1 compared to its inhibitor,[1]; [5],1.62 fold
same,expression of SLC16A1 when treated with TGF-β1 compared to its inhibitor,[1]; [5],0.79 fold
same,CD109 expression following TGF-β treatment relative to TGF-β-inhibitor alone,U87 cell line,2.09 fold
same,CLCC1 expression following TGF-β treatment relative to TGF-β-inhibitor alone,U87 cell line,2.26 fold
same,CRTAP expression following TGF-β treatment relative to TGF-β-inhibitor alone,U87 cell line,2.12 fold
same,DDR2 expression following TGF-β treatment relative to TGF-β-inhibitor alone,U87 cell line,3.53 fold
same,ITGA7 expression following TGF-β treatment relative to TGF-β-inhibitor alone,U87 cell line,9.45 fold
same,MGST1 expression following TGF-β treatment relative to TGF-β-inhibitor alone,U87 cell line,2.77 fold
same,MRC2 expression following TGF-β treatment relative to TGF-β-inhibitor alone,U87 cell line,3.06 fold
same,PTGFRN expression following TGF-β treatment relative to TGF-β-inhibitor alone,U87 cell line,2.18 fold
same,SLC16A1 expression following TGF-β treatment relative to TGF-β-inhibitor alone,U87 cell line,2.05 fold
same,TGFBI expression following TGF-β treatment relative to TGF-β-inhibitor alone,U87 cell line,10.54 fold
same,TNC expression following TGF-β treatment relative to TGF-β-inhibitor alone,U87 cell line,6.55 fold
same,"enrichment of CD47, VCAM1, MYOF, ABCA1, CD44, S100A10, CA12 and SLC16A3 on TGF-β treatment vs. TGF-β-inhibitor treatment",U87 cell line,> 1.3 fold
same,"expression of CD97, SCAMP3, PDIA4, CD99, ABCA1, TMX1, RTN4 and CD151 following TGF-β treatment in comparison to inhibitor treatment",U87 cell line,remained largely unchanged
same,expression of the 11 proteins when TGF-β-inhibitor treated cells were retreated with TGF-β,U87 cell line,overexpressed
same,"expression of ASPH, NRP1, CD276 and HMOX1 following TGF-β treatment",U87 cell line; vs inhibitor treatment,relatively reduced
same,C-terminal phosphorylation of SMAD2,"[2]; U87 serum starved overnight, 10 ng/ml TGF-β1 for 40 hrs, in comparison to cells in serum-free media",increased
same,expression of HMOX1 in response to TGF-β,[4]; EGFR+PTEN cells,1.058 fold
same,expression of SLC16A1 in response to TGF-β,[4]; EGFR+PTEN cells,0.724 fold
same,expression of CD97,[4]; EGFRVIII alone,0.75±0.010 fold
same,expression of SLC16A3,[4]; EGFRVIII alone,0.97 fold
same,expression of CD97,[4]; EGFRVIII+PTEN cells,1.51 fold
same,expression of HMOX1 in response to TGF-β,[4]; EGFRVIII+PTEN cells,1.48 fold
same,expression of SLC16A1 in response to TGF-β,[4]; EGFRVIII+PTEN cells,1.19 fold
same,expression of SLC16A3,[4]; EGFRVIII+PTEN cells,1.3 fold
same,increase in expression of HMOX1 in response to TGF-β compared to the parental cell line,[4]; [6],2.69 fold
same,increase in expression of SLC16A1 in response to TGF-β compared to the parental cell line,[4]; [6],1.5±0.028 fold
same,increase in expression of HMOX1 in response to TGF-β compared to the parental cell line,[4]; [7],2.13 fold
same,increase in expression of SLC16A1 in response to TGF-β compared to the parental cell line,[4]; [7],1.75 fold
same,"cell-surface expression of CD47, SLC16A3, MRC2, HMOX1 and SLC16A1 in response to TGF-β","[4]; all U87 isogenic cell lines, similar to parental cell line",increase
same,MRC2 and CD47 expression in response to TGF-β treatment,[4]; when PTEN was overexpressed,up regulated
same,"changes in cell-surface expression of SLC16A1, HMOX1, MRC2, CD47, SLC16A3 and CD97 in response to TGF-β treatment",[3]; NSCs,no significant changes
same,"effect on SLC16A1, HMOX1 and CD97 expression",[3]; healthy NSCs,little or no effect
